The source of these data is patent US11365196B2, “FGFR inhibitor and application thereof” (Betta Pharmaceuticals Co., Ltd., priority 2017, dated 2022).

One assay concerns NCI-H1581 cells. The assay can be described thus: Cell proliferation assay on NCI-H1581 (Table 7). It counts as cell-based, human. The source says:
(§1) Test method: adding the appropriate volume of whole medium and the cells was suspended.

A further assay has as its target FGFR3 (Homo sapiens (Human), UniProt P22607). The assay can be described thus: Kinase assay Method 1, mobility shift assay. The following applies: ATP at Km, read-out: IC50(nM) value of compounds FGFR3. It counts as biochemical.
A further assay addresses FGFR4 (Homo sapiens (Human), UniProt P22455). Briefly: Kinase assay Method 1, mobility shift assay. It counts as biochemical. The following applies: ATP at Km, numeric values, read-out: IC50(nM) value of compounds FGFR4.
A further assay concerns SNU-16 cells. The assay can be described thus: Cell proliferation assay on SNU-16, CellTiter Glo (Table 8). The following applies: Homo sapiens, SNU-16, 96 hrs, class symbols, read-out: IC50(nM) value of compounds on SNU-16 cells. It counts as cell-based, human.
From the text: as §1
(In general: Cellular ATP, detected with luciferase, serves as a proxy for viable cell number.)

The target of a further assay is FGFR2 (Homo sapiens (Human), UniProt P21802). The assay can be described thus: Kinase assay Method 1, mobility shift assay. It counts as biochemical. The note with it: ATP at Km, read-out: IC50(nM) value of compounds FGFR2.
Chain of FGFR2 (P21802 22-821): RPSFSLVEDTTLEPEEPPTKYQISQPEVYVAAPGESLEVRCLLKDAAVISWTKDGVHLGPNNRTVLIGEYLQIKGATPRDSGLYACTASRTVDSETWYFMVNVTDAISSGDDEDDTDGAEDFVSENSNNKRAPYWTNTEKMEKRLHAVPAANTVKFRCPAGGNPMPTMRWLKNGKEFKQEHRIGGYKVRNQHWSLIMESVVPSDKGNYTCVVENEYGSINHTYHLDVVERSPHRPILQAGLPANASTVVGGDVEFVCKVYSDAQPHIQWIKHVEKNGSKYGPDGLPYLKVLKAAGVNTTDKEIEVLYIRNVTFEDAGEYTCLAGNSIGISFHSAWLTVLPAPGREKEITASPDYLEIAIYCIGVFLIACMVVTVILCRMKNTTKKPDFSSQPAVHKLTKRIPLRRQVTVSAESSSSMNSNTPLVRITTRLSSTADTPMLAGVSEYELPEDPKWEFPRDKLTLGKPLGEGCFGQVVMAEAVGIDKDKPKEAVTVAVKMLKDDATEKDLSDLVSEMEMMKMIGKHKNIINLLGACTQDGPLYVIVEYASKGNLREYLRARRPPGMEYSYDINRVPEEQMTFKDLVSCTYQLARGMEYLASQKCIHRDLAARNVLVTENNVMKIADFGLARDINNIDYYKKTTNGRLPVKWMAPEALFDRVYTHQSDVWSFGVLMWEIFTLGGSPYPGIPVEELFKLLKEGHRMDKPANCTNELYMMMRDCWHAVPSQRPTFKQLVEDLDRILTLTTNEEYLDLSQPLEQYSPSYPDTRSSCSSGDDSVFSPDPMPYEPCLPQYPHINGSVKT
A further assay has as its target FGFR1 (Homo sapiens (Human), UniProt P11362). The assay can be described thus: Kinase assay Method 1, mobility shift assay. The note with it: read-out: IC50(nM) value of compounds FGFR1; mobility shift assay, ATP at Km; class symbols.
Setting [1] is: Homo sapiens, NCI-H1581, read-out: IC50(nM) value of compounds on NCI-H1581 cells.
Where [2] appears, read: Homo sapiens, NCI-H1581, CellTiter 96 AQueous (144 hrs) or CellTiter Glo (96 hrs), class symbols, read-out: IC50(nM) value of compounds on NCI-H1581 cells.

Read-outs that look alike come from different tables or passages of the source.

Chain of FGFR3 (P22607 23-806): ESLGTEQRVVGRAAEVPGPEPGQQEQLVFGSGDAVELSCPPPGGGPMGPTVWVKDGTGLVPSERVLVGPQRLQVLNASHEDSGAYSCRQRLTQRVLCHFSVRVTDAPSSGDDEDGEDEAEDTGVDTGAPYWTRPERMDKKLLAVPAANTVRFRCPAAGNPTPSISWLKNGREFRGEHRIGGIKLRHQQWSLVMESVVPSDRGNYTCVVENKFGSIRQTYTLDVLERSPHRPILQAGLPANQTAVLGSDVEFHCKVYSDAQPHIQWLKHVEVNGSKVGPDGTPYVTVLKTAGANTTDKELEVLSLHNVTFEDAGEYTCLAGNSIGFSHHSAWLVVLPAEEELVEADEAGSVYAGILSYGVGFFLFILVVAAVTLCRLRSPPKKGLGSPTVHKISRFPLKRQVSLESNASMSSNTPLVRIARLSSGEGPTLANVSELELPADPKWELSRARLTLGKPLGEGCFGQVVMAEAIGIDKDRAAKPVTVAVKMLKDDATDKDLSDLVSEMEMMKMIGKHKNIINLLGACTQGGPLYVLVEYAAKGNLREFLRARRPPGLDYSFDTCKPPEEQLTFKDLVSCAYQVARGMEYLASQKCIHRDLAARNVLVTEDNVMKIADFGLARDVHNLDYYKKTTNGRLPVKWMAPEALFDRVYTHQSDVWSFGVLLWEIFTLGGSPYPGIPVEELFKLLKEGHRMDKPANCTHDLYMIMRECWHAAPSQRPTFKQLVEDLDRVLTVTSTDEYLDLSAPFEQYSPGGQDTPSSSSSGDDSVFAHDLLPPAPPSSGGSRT
Chain of FGFR4 (P22455 22-802): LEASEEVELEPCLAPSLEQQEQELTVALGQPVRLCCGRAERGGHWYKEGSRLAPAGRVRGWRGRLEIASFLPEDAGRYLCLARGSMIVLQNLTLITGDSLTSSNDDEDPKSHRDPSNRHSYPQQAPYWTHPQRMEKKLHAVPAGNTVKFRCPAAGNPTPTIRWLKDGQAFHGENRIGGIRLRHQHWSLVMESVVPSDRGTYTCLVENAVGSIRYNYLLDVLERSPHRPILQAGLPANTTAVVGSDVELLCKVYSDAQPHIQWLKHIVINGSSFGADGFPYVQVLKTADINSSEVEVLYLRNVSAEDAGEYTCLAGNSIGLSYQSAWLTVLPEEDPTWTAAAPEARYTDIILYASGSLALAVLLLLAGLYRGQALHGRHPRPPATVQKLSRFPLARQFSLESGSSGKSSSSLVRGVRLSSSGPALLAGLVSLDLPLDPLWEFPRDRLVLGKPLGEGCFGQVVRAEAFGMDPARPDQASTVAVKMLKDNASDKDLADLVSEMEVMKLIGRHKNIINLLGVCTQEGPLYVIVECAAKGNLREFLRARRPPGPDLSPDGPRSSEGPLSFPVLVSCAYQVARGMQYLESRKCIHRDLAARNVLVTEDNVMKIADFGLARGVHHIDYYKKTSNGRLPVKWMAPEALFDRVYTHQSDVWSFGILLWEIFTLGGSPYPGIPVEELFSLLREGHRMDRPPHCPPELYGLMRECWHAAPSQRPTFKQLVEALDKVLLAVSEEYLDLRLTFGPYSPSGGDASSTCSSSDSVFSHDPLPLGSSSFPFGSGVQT
Chain of FGFR1 (P11362 22-822): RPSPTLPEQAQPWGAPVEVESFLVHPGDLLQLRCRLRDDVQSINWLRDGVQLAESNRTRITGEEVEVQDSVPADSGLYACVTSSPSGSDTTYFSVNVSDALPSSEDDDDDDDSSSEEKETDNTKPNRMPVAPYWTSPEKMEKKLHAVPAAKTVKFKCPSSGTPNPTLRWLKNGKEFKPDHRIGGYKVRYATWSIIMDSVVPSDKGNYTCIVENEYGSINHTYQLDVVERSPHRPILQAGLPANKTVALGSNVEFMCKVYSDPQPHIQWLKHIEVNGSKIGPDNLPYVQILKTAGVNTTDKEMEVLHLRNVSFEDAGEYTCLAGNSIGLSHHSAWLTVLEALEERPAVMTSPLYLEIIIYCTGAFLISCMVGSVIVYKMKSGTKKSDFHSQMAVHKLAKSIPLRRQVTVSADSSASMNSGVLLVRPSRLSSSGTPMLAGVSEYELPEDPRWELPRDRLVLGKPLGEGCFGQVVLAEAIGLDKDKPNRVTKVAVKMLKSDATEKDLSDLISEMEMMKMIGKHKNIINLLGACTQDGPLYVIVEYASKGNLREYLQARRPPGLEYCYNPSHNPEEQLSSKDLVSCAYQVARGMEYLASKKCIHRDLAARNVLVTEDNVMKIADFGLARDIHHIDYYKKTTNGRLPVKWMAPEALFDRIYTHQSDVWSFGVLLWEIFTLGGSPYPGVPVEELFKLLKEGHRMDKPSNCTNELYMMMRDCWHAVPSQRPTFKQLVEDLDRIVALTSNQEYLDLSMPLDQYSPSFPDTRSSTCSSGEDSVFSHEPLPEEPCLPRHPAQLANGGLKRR
Procedure for FGFR1: Method 1: The inhibitory activity of some compounds of the present disclosure against FGFR1, FGFR2, FGFR3, FGFR4, KDR was tested by mobility shift assay (concentration of ATP is Km value).
Preparing of compounds: dilute test compounds to specific concentration using 100% DMSO

`COc1cc(OC)c(Cl)c(-c2cc3cnc(Nc4ccc(N5CCN6CCC[C@@H]6C5)cc4)nc3n3cnnc23)c1` [Compound 24, (R)-6-(2-chloro-3,5-dimethoxyphenyl)-N-(4-(hexahydropyrrolo[1,2-a]pyrazin-2(1H)-yl)phenyl)-[1,2,4]triazolo[4′,3′:1,6]pyrido[2,3-d]pyrimidin-2-amine]: the IC50 – broadly, the concentration that gives 50% inhibition – is 1.2 nM in the assay on NCI-H1581 cells (setting [1]); 0.8 nM at FGFR3; 26 nM at FGFR4; below 1 nM in the assay with SNU-16 cells; 1.8 nM on FGFR2.

In the case of `COc1cc(OC)c(Cl)c(-c2cc3cnc(Nc4ccc(N5CCC(N6CCOCC6)CC5)cc4)nc3n3cnnc23)c1` [Compound 29, 6-(2-chloro-3,5-dimethoxyphenyl)-N-(4-(4-morpholinopiperidin-1-yl)phenyl)-[1,2,4]triazolo[4′,3′:1,6]pyrido[2,3-d]pyrimidin-2-amine], the values for the half-maximal inhibitory concentration (IC50) with NCI-H1581 cells (setting [1]) and in the assay on SNU-16 cells were 2 nM and below 1 nM, respectively.

With `COc1cc(OC)c(Cl)c(-c2cc3cnc(Nc4ccc(N5CCN6CCOC[C@@H]6C5)cc4)nc3n3cnnc23)c1` [Compound 42, (S)-6-(2-chloro-3,5-dimethoxyphenyl)-N-(4-(hexahydropyrazino[2,1-c][1,4]oxazin-8(1H)-yl)phenyl)-[1,2,4]triazolo[4′,3′:1,6]pyrido[2,3-d]pyrimidin-2-amine], the IC50 is 3.2 nM in the assay with NCI-H1581 cells (setting [1]), 1.6 nM at FGFR3, below 1 nM with SNU-16 cells and 1.3 nM on FGFR2.

As to `COc1cc(OC)c(Cl)c(-c2cc3cnc(Nc4ccc(N5CCN6CCOC[C@H]6C5)cc4)nc3n3cnnc23)c1` [Compound 43, (R)-6-(2-chloro-3,5-dimethoxyphenyl)-N-(4-(hexahydropyrazino[2,1-c][1,4]oxazin-8(1H)-yl)phenyl)-[1,2,4]triazolo[4′,3′:1,6]pyrido[2,3-d]pyrimidin-2-amine], the IC50 with NCI-H1581 cells (setting [1]) is 1 to 10 nM; in the assay with SNU-16 cells, below 1 nM.

Regarding `COc1cc(OC)c(Cl)c(-c2cc3cnc(Nc4ccc(N5C[C@@H](C)N[C@@H](C)C5)cc4)nc3n3cnnc23)c1` [Compound 50, 6-(2-chloro-3,5-dimethoxyphenyl)-N-(4-((3S,5R)-3,5-dimethylpiperazin-1-yl)phenyl)-[1,2,4]triazolo[4′,3′:1,6]pyrido[2,3-d]pyrimidin-2-amine], the figures for the IC50 in the assay with NCI-H1581 cells (setting [1]), at FGFR4 and in the assay with SNU-16 cells were 0.2 nM, 35 nM and below 1 nM, respectively.

For `COc1cc(OC)c(Cl)c(-c2cc3cnc(Nc4ccc(N5CCN6CCC[C@@H]6C5)cc4)nc3n3cnnc23)c1Cl` [Compound 64, (R)-6-(2,6-dichloro-3,5-dimethoxyphenyl)-N-(4-(hexahydropyrrolo[1,2-a]pyrazin-2(1H)-yl)phenyl)-[1,2,4]triazolo[4′,3′:1,6]pyrido[2,3-d]pyrimidin-2-amine], the IC50 with NCI-H1581 cells (setting [1]) is 0.5 nM; on FGFR3, 0.6 nM; on FGFR4, 14 nM; in the assay with SNU-16 cells it was below 1 nM; at FGFR2 it was 2.7 nM.

Consider `COc1cc(OC)c(Cl)c(-c2cc3cnc(Nc4ccc(N5CCC(N6CCOCC6)CC5)cc4)nc3n3cnnc23)c1Cl` [Compound 65, 6-(2,6-dichloro-3,5-dimethoxyphenyl)-N-(4-(4-morpholinopiperidin-1-yl)phenyl)-[1,2,4]triazolo[4′,3′:1,6]pyrido[2,3-d]pyrimidin-2-amine], for which the IC50 in the assay with NCI-H1581 cells (setting [1]) turned out to be 0.6 nM; at FGFR4 it was 6.7 nM.

As to `CCN1CCN(c2ccc(Nc3ncc4cc(-c5cc6[nH]c(C)nc6cc5Cl)c5nncn5c4n3)cc2)CC1` [Compound 67, 6-(5-chloro-2-methyl-1H-benzo[d]imidazol-6-yl)-N-(4-(4-ethylpiperazin-1-yl)phenyl)-[1,2,4]triazolo[4′,3′:1,6]pyrido[2,3-d]pyrimidin-2-amine], the IC50 in the assay with NCI-H1581 cells (setting [1]) was 1 to 10 nM; on FGFR4, 90 nM.

For the compound `Cc1nc2cc(Cl)c(-c3cc4cnc(Nc5ccc(N6CCC(N(C)C)CC6)cc5)nc4n4cnnc34)cc2[nH]1` [Compound 78, 6-(5-chloro-2-methyl-1H-benzo[d]imidazol-6-yl)-N-(4-(4-(dimethylamino)piperidin-1-yl)phenyl)-[1,2,4]triazolo[4′,3′:1,6]pyrido[2,3-d]pyrimidin-2-amine], the IC50 in the assay with NCI-H1581 cells (setting [1]) was 5.3 nM; on FGFR4, 600 nM.

With `Cc1nc2cc(Cl)c(-c3cc4cnc(Nc5ccc(N6CCOCC6)cc5)nc4n4cnnc34)cc2[nH]1` [Compound 81, 6-(5-chloro-2-methyl-1H-benzo[d]imidazol-6-yl)-N-(4-morpholinophenyl)-[1,2,4]triazolo[4′,3′:1,6]pyrido[2,3-d]pyrimidin-2-amine], the IC50 in the assay with NCI-H1581 cells (setting [1]) worked out at 9.3 nM; on FGFR4, 191 nM.

With `Cc1nc2cc(Cl)c(-c3cc4cnc(Nc5ccc(N6CCN7CCC[C@@H]7C6)cc5)nc4n4cnnc34)cc2[nH]1` [Compound 84], the IC50 in the assay on NCI-H1581 cells (setting [2]) is 1 to 10 nM; at FGFR1, below 1 nM; in the assay with SNU-16 cells it was 1 to 10 nM.

On to `CCN1CCC(c2ccc(Nc3ncc4cc(-c5cc(OC)cc(OC)c5Cl)c5nncn5c4n3)cc2)CC1` [Compound 102, 6-(2-chloro-3,5-dimethoxyphenyl)-N-(4-(1-ethylpiperidin-4-yl)phenyl)-[1,2,4]triazolo[4′,3′:1,6]pyrido[2,3-d]pyrimidin-2-amine], for which the results for the half-maximal inhibitory concentration (IC50) in the assay on NCI-H1581 cells (setting [1]) and at FGFR4 were 0.7 nM and 60 nM, respectively.

In the case of `COc1cc(OC)c(Cl)c(-c2cc3cnc(Nc4ccc(C5CCNCC5)cc4)nc3n3cnnc23)c1` [Compound 102-2], the figures for the concentration for half-maximal inhibition (IC50) in the assay on NCI-H1581 cells (read-out: IC50(nM) value of compounds on NCI-H1581 cells) and at FGFR4 were 0.9 nM and 26 nM, respectively.

As to `CCN1CCN(Cc2ccc(Nc3ncc4cc(-c5cc(OC)cc(OC)c5Cl)c5nncn5c4n3)cn2)CC1` [Compound 111, 6-(2-chloro-3,5-dimethoxyphenyl)-N-(6-((4-ethylpiperazin-1-yl)methyl)pyridin-3-yl)-[1,2,4]triazolo[4′,3′:1,6]pyrido[2,3-d]pyrimidin-2-amine], the IC50 in the assay on NCI-H1581 cells (setting [1]) was 8.2 nM; on FGFR4 it was 288 nM.

Regarding `C=CC(=O)N1CCN(Cc2nc3c(-c4c(Cl)c(OC)cc(OC)c4Cl)cc4cnc(NC)nc4n3n2)CC1` [Compound 123, 1-(4-(2-(4-(2,6-dichloro-3,5-dimethoxyphenyl)-8-(methylamino)-[1,2,4]triazolo[1′,5′:1,6]pyrido[2,3-d]pyrimidin-2-yl)methyl)piperazin-1-yl)prop-2-en-1-one], the results for the IC50 in the assay with NCI-H1581 cells (setting [1]) and at FGFR4 were 5.8 nM and 730 nM, respectively.

`C=CC(=O)N1CCC2(CC1)CN(CCCc1nc3c(-c4c(Cl)c(OC)cc(OC)c4Cl)cc4cnc(NC)nc4n3n1)C2` [Compound 138, 1-(2-(3-(4-(2,6-dichloro-3,5-dimethoxyphenyl)-8-(methylamino)-[1,2,4]triazolo[1′,5′:1,6]pyrido[2,3-d]pyrimidin-2-yl)propyl)-2,7-diazaspiro[3.5]nonan-7-yl)prop-2-en-1-one]: the concentration for half-maximal inhibition (IC50) in the assay with SNU-16 cells lay in the range of 1 to 10 nM.

For `CNc1ncc2cc(-c3c(Cl)c(OC)cc(OC)c3Cl)c3nc(CCCN4CCN(C(=O)C(C#N)=CC(C)C)CC4)nn3c2n1` [Compound 147, 2-(4-(3-(4-(2,6-dichloro-3,5-dimethoxyphenyl)-8-(methylamino)-[1,2,4]triazolo[1′,5′:1,6]pyrido[2,3-d]pyrimidin-2-yl)propyl)piperazine-1-carbonyl)-4-methylpent-2-enenitrile], the IC50 in the assay on NCI-H1581 cells (setting [2]) and in the assay on SNU-16 cells was 10 to 100 nM throughout.
